Measured values published in patent US20260124226A1 (priority 2023, published 2026).
“And” between values parts separate entries of the source, which are not always exact repeats. Equal values may be shown once. Read-outs that look alike come from different tables or passages of the source.

Legend:
VEEV = experiment: microbe, parasite or virus in culture; format: cell-based, Venezuelan equine encephalitis virus; conditions: Venezuelan equine encephalitis virus
EEEV = experiment: microbe, parasite or virus in culture; format: cell-based, Eastern equine encephalitis virus
WEEV = experiment: microbe, parasite or virus in culture; format: cell-based, Western equine encephalitis virus; conditions: Vero76 cells
CHIKV = experiment: microbe, parasite or virus in culture; format: cell-based, Chikungunya virus
Heartland virus = experiment: microbe, parasite or virus in culture; format: cell-based; conditions: Vero
La Crosse virus = experiment: microbe, parasite or virus in culture; format: cell-based
Marpol virus = experiment: organism not typed; format: cell-based
Punta Toro virus = experiment: microbe, parasite or virus in culture; format: cell-based
[1] = test system: Severe fever thrombocytopenia syndrome virus; experiment: organism not typed; format: cell-based; conditions: Vero
Lassa fever virus = experiment: organism not typed; format: cell-based; conditions: Vero
Junin virus = experiment: microbe, parasite or virus in culture; format: cell-based; conditions: for EC50: Junin virus strain Candid #1, Vero cells
[2] = test system: Lymphocytic choriomeningitis virus; experiment: microbe, parasite or virus in culture; format: cell-based; conditions: Mammarenavirus choriomeningitidis, Vero
Pichinde virus = experiment: microbe, parasite or virus in culture; format: cell-based; conditions: Vero
Tacaribe virus = experiment: microbe, parasite or virus in culture; format: cell-based; conditions: for EC50: Tacaribe virus strain TRVL 11573, Vero cells
Flu A H3N2 = experiment: microbe, parasite or virus in culture; format: cell-based, influenza A virus; conditions: Influenza A virus, H3N2, MDCK
Flu A H5N1 (Low Path) = experiment: microbe, parasite or virus in culture; format: cell-based, influenza A virus; conditions: Influenza A virus, H5N1, MDCK
Flu B = experiment: microbe, parasite or virus in culture; format: cell-based, influenza B virus; conditions: Influenza B virus, MDCK
Parainfluenza virus 3 = experiment: organism not typed; format: cell-based
EBOV = experiment: microbe, parasite or virus in culture; format: cell-based, Ebola virus; conditions: Zaire ebolavirus, Vero
Marburg virus = experiment: microbe, parasite or virus in culture; format: cell-based; conditions: Filoviridae, Vero
MERS = experiment: microbe, parasite or virus in culture; format: cell-based, MERS coronavirus; conditions: Middle East respiratory syndrome-related coronavirus, Vero 76
ZIKV = experiment: microbe, parasite or virus in culture; format: cell-based, Zika virus; conditions: Zika virus, Vero 76
DENV2 = experiment: microbe, parasite or virus in culture; format: cell-based, Dengue virus 2; conditions: Dengue virus, DENV2, Huh-7
Murine Norovirus = experiment: microbe, parasite or virus in culture; format: cell-based; conditions: Norwalk virus, RAW264.7
CEM = experiment: EIDD-2749 cytotoxicity; format: cell-based; conditions: CEM cells
Huh-7 = experiment: EIDD-2749 cytotoxicity; format: cell-based, human; conditions: Huh-7 cells
A-204 = experiment: EIDD-2749 cytotoxicity; format: cell-based; conditions: A-204 cells
A549 = experiment: EIDD-2749 cytotoxicity; format: cell-based; conditions: A549 cells
BxPc3 = experiment: EIDD-2749 cytotoxicity; format: cell-based; conditions: BxPc3 cells
H9c-2 = experiment: EIDD-2749 cytotoxicity; format: cell-based; conditions: H9c-2 cells
IEC-6 = experiment: EIDD-2749 cytotoxicity; format: cell-based; conditions: IEC-6 cells
Vero = experiment: EIDD-2749 cytotoxicity; format: cell-based, African green monkey; conditions: Vero cells
Vero 76 cells = conditions: African green monkey
Vero cells = conditions: African green monkey
MDCK cells = conditions: dog
MA-104 cells = conditions: African green monkey
RD cells = conditions: human
[3] = male, Sprague-Dawley, rat, microsomes, pH 7.4
Plasma stability [4] = conditions: human plasma, drug 1.00 μM, 37° C.
Plasma stability [5] = conditions: mouse plasma, drug 1.00 μM
Plasma stability [6] = conditions: rat plasma, drug 1.00 μM
[7] = Mouse PK (plasma, IP and oral); conditions: female, ICR (CD-1)
[8] = Mammarenavirus tacaribeense, Vero

O=c1ccn([C@@H]2O[C@](F)(CO)[C@@H](O)[C@H]2O)c(=O)[nH]1 [EIDD-2749, 4′-fluorouridine]
EC90 (VEEV; Vero 76): 213 µM
EC50 (VEEV; Vero 76, VEEV strain TC-83, Vero 76 cells): 7.6 µM
EC50 (EEEV; EEEV strain FL93-939, Vero76 cells): > 380 µM
EC50 (EEEV; Eastern equine encephalitis virus, Vero 76, EEEV strain FL93-939, Vero76 cells): 380 µM
EC50 (WEEV; WEEV strain California): 11.8 µM
EC50 (WEEV; Western equine encephalitis virus, Vero 76, WEEV strain California): 9.88 µM
EC50 (CHIKV): 2.05 µM and 3.42 µM
EC50 (CHIKV; Chikungunya virus, Vero 76): 1.98 µM
EC90 (CHIKV; Chikungunya virus, Vero 76): 9.12 µM
EC90 (Heartland virus): 122 µM
EC50 (La Crosse virus): < 0.38 µM
EC50 (Marpol virus): 57 µM
EC50 (Marpol virus; Vero C1008): 95 µM
EC50 (Punta Toro virus): 91.2 µM
EC50 (Punta Toro virus; Punta Toro virus, Vero 76): 72.2 µM
EC90 [1]: > 380 µM
EC50 (Lassa fever virus): 0.38 µM
EC90 (Lassa fever virus): 9 µM
EC50 (Junin virus): 1.29 µM
EC90 (Junin virus; Mammarenavirus juninense, Vero): 0.38 µM
EC50 (Junin virus; Mammarenavirus juninense, Vero): 1.86 µM
EC90 [2]: 7.22 µM
EC90 (Pichinde virus): 0.19 µM
EC90 (Tacaribe virus; [8]): 0.87 µM
EC50 (Tacaribe virus; [8]): < 0.38 µM
EC50 (Tacaribe virus): 0.34 µM
EC50 (Flu A H3N2): < 0.38 µM
EC50 (Flu A H5N1 (Low Path)): < 0.38 µM
EC50 (Flu B): < 0.38 µM
EC50 (Parainfluenza virus 3): 60.8 µM
EC50 (Parainfluenza virus 3; MA104): 98.8 µM
EC50 (EBOV): 1.52 µM
EC90 (EBOV): 22 µM
EC50 (Marburg virus): > 380 µM
EC50 (MERS): > 380 µM
EC90 (ZIKV): > 380 µM
EC50 (DENV2): > 380 µM
EC50 (Murine Norovirus): 2.2 µM
EC90 (Murine Norovirus): 7.2 µM
CC50 (CEM): 107 µM
CC50 (Huh-7): > 400 µM
CC50 (A-204): > 400 µM
CC50 (A549): > 400 µM
CC50 (BxPc3): > 400 µM
CC50 (H9c-2): > 400 µM
CC50 (IEC-6): 372 µM
CC50 (Vero): > 400 µM
CC50 (Vero 76 cells): > 380 µM
CC50 (Vero cells): > 380 µM
CC50 (MDCK cells): > 380 µM
CC50 (MA-104 cells): > 380 µM
CC50 (RD cells): > 380 µM
half-life [3]: 25 min
half-life (Plasma stability [4]): 26 min
half-life (Plasma stability [5]): 37 min
half-life (Plasma stability [6]): 22 min
concentration at 24 h ([7]; ip, 10 mg/kg): 0.75 ± 0.1 µM
concentration at 24 h ([7]; po, 50 mg/kg): 2.8 ± 1.1 µM
concentration at 24 h ([7]; po, 150 mg/kg): 3.4 ± 1.3 µM
concentration at 24 h ([7]; po, 500 mg/kg): 9.8 ± 4.2 µM
